In US12065443B2, “Compounds and pharmaceutical compositions thereof for the treatment of diseases” (priority 2017, dated 2024):

What was measured:
Experiment in all cases: biochemical
[1] = molecular target: T1, SIK1 (Homo sapiens, UniProt P57059); conditions: 33P radioactive SIK kinase assay, AMARA peptide, 10 μM ATP; read-out: SIK1 IC50
T1 construct: purchased Carna Biosciences 02-131
How it was run: (§1)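 AMARA peptide phosphorylation by SIK1–3 is quantified through ^33P uptake from a labeled/unlabeled ATP blend. Staurosporine at 10 μM final defines full inhibition, 1% DMSO the uninhibited signal. Quench uses phosphoric acid; counting follows filter capture.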

[2] = molecular target: T2, SIK2 (Homo sapiens, UniProt Q9H0K1); conditions: 33P radioactive SIK kinase assay, AMARA peptide, 10 μM ATP
T2 construct: purchased ThermoFisher Scientific PV4792
T2 sequence (Q9H0K1 whole entry): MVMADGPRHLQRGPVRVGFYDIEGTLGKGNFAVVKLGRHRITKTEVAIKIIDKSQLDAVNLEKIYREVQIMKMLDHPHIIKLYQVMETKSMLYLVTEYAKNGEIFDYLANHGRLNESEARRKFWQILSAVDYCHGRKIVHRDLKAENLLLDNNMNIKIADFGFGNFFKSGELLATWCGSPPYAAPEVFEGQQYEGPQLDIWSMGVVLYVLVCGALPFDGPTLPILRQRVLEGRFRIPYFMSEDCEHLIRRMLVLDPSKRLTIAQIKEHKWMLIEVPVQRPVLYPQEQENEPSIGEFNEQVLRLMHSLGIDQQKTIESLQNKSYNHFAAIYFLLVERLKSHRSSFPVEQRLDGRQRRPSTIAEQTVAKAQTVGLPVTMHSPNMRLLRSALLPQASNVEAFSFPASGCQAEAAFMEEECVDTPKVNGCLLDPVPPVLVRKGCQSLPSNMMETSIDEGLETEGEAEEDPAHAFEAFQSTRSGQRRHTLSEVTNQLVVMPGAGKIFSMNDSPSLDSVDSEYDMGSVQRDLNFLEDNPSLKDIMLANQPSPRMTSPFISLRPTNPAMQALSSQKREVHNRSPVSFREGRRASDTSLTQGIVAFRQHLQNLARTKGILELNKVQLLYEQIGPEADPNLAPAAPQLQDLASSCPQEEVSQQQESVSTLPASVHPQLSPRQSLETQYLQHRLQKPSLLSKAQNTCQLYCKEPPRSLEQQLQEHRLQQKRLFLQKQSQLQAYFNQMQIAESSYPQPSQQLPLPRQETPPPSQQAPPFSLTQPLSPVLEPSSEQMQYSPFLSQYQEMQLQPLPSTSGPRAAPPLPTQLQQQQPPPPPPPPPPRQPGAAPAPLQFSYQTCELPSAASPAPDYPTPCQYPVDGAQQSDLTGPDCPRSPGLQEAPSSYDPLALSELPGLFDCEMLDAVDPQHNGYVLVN
How it was run: as §1

[3] = molecular target: T3, SIK3 (Homo sapiens, UniProt Q9Y2K2)
T3 construct: purchased SignalChem S12-11G-100
T3 sequence (Q9Y2K2 whole entry): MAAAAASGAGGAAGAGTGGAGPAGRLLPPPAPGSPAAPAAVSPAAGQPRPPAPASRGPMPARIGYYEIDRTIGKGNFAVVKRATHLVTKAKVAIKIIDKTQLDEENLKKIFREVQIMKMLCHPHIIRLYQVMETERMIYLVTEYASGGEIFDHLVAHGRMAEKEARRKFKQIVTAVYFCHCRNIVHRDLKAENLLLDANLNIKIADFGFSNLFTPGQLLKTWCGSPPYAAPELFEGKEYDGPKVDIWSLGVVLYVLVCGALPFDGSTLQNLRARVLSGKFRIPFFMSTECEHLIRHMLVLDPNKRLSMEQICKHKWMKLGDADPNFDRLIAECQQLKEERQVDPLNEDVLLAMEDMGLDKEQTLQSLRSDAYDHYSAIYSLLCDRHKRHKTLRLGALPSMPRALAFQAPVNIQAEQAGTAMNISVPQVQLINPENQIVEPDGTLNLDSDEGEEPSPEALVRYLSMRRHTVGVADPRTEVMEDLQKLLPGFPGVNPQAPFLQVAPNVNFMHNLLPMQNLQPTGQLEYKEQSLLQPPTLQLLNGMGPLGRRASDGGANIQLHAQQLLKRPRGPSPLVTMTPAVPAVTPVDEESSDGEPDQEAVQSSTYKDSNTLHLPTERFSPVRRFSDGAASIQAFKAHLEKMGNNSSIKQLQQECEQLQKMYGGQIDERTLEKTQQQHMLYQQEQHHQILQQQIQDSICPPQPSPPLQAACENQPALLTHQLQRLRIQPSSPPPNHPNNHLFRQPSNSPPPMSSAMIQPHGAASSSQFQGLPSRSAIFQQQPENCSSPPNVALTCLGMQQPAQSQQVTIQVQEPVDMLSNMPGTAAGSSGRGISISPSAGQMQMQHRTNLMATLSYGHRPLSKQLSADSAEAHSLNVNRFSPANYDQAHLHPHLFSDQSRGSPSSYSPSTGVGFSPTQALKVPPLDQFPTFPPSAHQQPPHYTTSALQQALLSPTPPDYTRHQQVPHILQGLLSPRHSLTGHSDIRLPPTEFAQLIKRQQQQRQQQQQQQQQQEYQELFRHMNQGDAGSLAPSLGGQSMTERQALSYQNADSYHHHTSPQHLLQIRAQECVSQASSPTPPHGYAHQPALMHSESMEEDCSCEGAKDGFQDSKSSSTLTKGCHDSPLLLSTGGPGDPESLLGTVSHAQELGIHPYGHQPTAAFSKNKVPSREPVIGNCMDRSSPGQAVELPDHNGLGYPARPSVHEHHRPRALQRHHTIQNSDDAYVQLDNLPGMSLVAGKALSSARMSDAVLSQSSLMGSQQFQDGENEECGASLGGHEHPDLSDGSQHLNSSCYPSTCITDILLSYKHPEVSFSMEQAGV
How it was run: as §1

T1 sequence (P57059 whole entry): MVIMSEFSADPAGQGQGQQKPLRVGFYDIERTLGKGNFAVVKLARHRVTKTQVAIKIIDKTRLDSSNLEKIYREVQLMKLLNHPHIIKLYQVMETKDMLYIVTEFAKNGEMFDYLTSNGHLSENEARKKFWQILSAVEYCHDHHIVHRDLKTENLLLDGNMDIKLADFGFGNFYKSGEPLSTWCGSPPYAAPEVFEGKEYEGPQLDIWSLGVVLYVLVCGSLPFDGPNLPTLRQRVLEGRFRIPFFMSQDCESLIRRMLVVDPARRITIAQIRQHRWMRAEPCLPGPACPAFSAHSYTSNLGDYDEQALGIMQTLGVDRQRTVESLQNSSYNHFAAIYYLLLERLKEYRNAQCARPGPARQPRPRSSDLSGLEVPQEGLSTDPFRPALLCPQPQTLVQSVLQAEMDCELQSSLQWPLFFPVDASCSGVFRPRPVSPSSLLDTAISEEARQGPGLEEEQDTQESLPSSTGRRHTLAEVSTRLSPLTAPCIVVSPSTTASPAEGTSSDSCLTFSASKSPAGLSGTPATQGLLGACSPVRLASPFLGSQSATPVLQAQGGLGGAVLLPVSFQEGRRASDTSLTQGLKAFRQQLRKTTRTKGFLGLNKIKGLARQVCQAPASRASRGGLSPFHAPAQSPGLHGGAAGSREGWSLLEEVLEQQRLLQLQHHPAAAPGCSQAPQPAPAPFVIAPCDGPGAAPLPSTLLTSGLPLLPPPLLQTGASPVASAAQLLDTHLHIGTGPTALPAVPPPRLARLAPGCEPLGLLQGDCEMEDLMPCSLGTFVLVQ

Row | IC50 [1] [nM] | IC50 [2] [nM] | IC50 [3] [nM] | Structure (SMILES)
1 | 100 to 500 | 10 to 100 | 100 to 500 | COc1cc(-n2cnc3cc(-c4cnn(C)c4)ccc32)cc(OC)c1C(=O)N1CC2(COC2)C1 [compound 194]
2 | 10 to 100 | 10 to 100 | 10 to 100 | CCNC(=O)c1c(O)cc(-n2cnc3cc(-c4cnn(CC)c4)ccc32)cc1OC [compound 23, N-ethyl-4-[5-(1-ethylpyrazol-4-yl)benzimidazol-1-yl]-2-hydroxy-6-methoxy-benzamide]
3 | 10 to 100 | 0.01 to 10 | 0.01 to 10 | COc1cc(-n2cnc3cc(-c4cnn(C)c4)ccc32)cc(OC)c1C(=O)NCCF [compound 79, N-(2-fluoroethyl)-2,6-dimethoxy-4-[5-(1-methylpyrazol-4-yl)benzimidazol-1-yl]benzamide]
4 | > 500 | > 500 | > 500 | COc1cc(-n2cnc3cc(-c4cnn(C)c4)ccc32)cc(OC)c1C(=O)N1C(C)CC1C (stereo not drawn) [compound 181, [2,6-dimethoxy-4-[5-(1-methylpyrazol-4-yl)benzimidazol-1-yl]phenyl]-(2,4-dimethylazetidin-1-yl)methanone]
5 | 100 to 500 | 100 to 500 | 100 to 500 | COc1cc(-n2cnc3cc(-c4conc4C)ccc32)cc(OC)c1C(=O)NCC(F)(F)F [compound 108, 2,6-dimethoxy-4-[5-(3-methylisoxazol-4-yl)benzimidazol-1-yl]-N-(2,2,2-trifluoroethyl)benzamide]
6 | 10 to 100 | 10 to 100 | 10 to 100 | COc1cc(-n2cnc3cc(-c4cnn(C)c4)ccc32)cc(OC)c1C(=O)N1CC(O)(C2CC2)C1 [compound 220, (3-cyclopropyl-3-hydroxy-azetidin-1-yl)-[2,6-dimethoxy-4-[5-(1-methylpyrazol-4-yl)benzimidazol-1-yl]phenyl]methanone]
7 | > 500 | > 500 | > 500 | COc1cc(-n2cnc3cc(-c4nc(C)no4)ccc32)cc(OC)c1C(=O)NCC(F)(F)F [Cpd 169, 2,6-dimethoxy-4-[5-(3-methyl-1,2,4-oxadiazol-5-yl)benzimidazol-1-yl]-N-(2,2,2-trifluoroethyl)benzamide]
8 | 10 to 100 | 10 to 100 | 10 to 100 | CCn1cc(-c2ccc3c(c2)ncn3-c2cc(OC)c(C(=O)NC3CCCC3)c(OC)c2)cn1 [compound 45, N-cyclopentyl-4-[5-(1-ethylpyrazol-4-yl)benzimidazol-1-yl]-2,6-dimethoxy-benzamide]
9 | 10 to 100 | 10 to 100 | 10 to 100 | COc1cc(-n2cnc3cc(-c4cnn(C)c4)ccc32)cc(OC)c1C(=O)NC1COC1 [compound 92, 2,6-dimethoxy-4-[5-(1-methylpyrazol-4-yl)benzimidazol-1-yl]-N-(oxetan-3-yl)benzamide]
10 | > 500 | 100 to 500 | 100 to 500 | COc1cc(-n2cnc3cc(-c4cnc(C)n4C)ccc32)cc(OC)c1C(=O)NCC(F)(F)F [compound 138, 4-[5-(2,3-dimethylimidazol-4-yl)benzimidazol-1-yl]-2,6-dimethoxy-N-(2,2,2-trifluoroethyl)benzamide]
11 | > 500 | > 500 | > 500 | COc1cc(-n2cnc3cc(-c4cnn(C)c4)ccc32)cc(OC)c1C(=O)N1CCC1C (stereo not drawn) [compound 182, [2,6-dimethoxy-4-[5-(1-methylpyrazol-4-yl)benzimidazol-1-yl]phenyl]-(2-methylazetidin-1-yl)methanone]
12 | 100 to 500 | 100 to 500 | 10 to 100 | CCn1cc(-c2ccc3c(c2)ncn3-c2cc(OC)c(C(=O)N(C)CC#N)c(OC)c2)cn1 [compound 31, N-(cyanomethyl)-4-[5-(1-ethylpyrazol-4-yl)benzimidazol-1-yl]-2,6-dimethoxy-N-methyl-benzamide]
13 | 10 to 100 | 10 to 100 | 10 to 100 | COc1cc(-n2cnc3cc(-c4cnn(C)c4)ccc32)cc(OC)c1C(=O)N1CC(C)(O)C1 [compound 217, [2,6-dimethoxy-4-[5-(1-methylpyrazol-4-yl)benzimidazol-1-yl]phenyl]-(3-hydroxy-3-methyl-azetidin-1-yl)methanone]
14 | 0.01 to 10 | 0.01 to 10 | 0.01 to 10 | COc1cc(-n2cnc3cc(-c4cnn(CC5CCCO5)c4)ccc32)cc(OC)c1C(=O)NCC(F)(F)F (stereo not drawn) [compound 111, 2,6-dimethoxy-4-[5-[1-(tetrahydrofuran-2-ylmethyl)pyrazol-4-yl]benzimidazol-1-yl]-N-(2,2,2-trifluoroethyl)benzamide]
15 | 100 to 500 | 100 to 500 | 100 to 500 | COc1cc(-n2cnc3cc(-c4cnn(C)c4)ccc32)cc(OC)c1C(=O)NC[C@H]1COCCO1 [compound 69, N-[[(2S)-1,4-dioxan-2-yl]methyl]-2,6-dimethoxy-4-[5-(1-methylpyrazol-4-yl)benzimidazol-1-yl]benzamide]
16 | > 500 | > 500 | 100 to 500 | COc1ncc(-c2ccc3c(c2)ncn3-c2cc(OC)c(C(=O)NCC(F)(F)F)c(OC)c2)cn1 [compound 105, 2,6-dimethoxy-4-[5-(2-methoxypyrimidin-5-yl)benzimidazol-1-yl]-N-(2,2,2-trifluoroethyl)benzamide]
17 | 10 to 100 | 0.01 to 10 | 0.01 to 10 | COc1cc(-c2cnc3cc(-c4cnn(C)c4)ccn23)cc(OC)c1C(=O)N[C@H]1CC[C@@H]1O [compound 170]
18 | > 500 | > 500 | > 500 | COc1cc(-n2cnc3cc(-c4cnn(C)c4)ccc32)cc(OC)c1C(=O)NC1CCCCC1OC (stereo not drawn) [compound 161, 2,6-dimethoxy-N-(2-methoxycyclohexyl)-4-[5-(1-methylpyrazol-4-yl)benzimidazol-1-yl]benzamide]
19 | 10 to 100 | 10 to 100 | 10 to 100 | COC(=O)C1CN(C(=O)c2c(OC)cc(-c3cnc4cc(-c5cnn(C)c5)ccn34)cc2OC)C1 [compound 226, methyl 1-[2,6-dimethoxy-4-[7-(1-methylpyrazol-4-yl)imidazo[1,2-a]pyridin-3-yl]benzoyl)azetidine-3-carboxylate]
20 | 10 to 100 | 100 to 500 | 100 to 500 | COc1cc(-n2cnc3cc(-c4cnn(C)c4)ccc32)cc(OC)c1C(=O)N1CC(OCc2ccccc2)C1 [compound 186, (3-benzyloxyazetidin-1-yl)-[2,6-dimethoxy-4-[5-(1-methylpyrazol-4-yl)benzimidazol-1-yl]phenyl]methanone]
21 | 10 to 100 | 10 to 100 | 10 to 100 | COc1cc(-n2cnc3cc(-c4cnn(C)c4)ccc32)cc(OC)c1C(=O)NC(C)C#N (stereo not drawn) [compound 87, N-(1-cyanoethyl)-2,6-dimethoxy-4-[5-(1-methylpyrazol-4-yl)benzimidazol-1-yl]benzamide]
22 | 10 to 100 | 10 to 100 | 10 to 100 | COc1cc(-c2cnc3cc(-c4cnn(C)c4)ccn23)cc(OC)c1C(=O)NC(C(C)C)C(F)(F)F (stereo not drawn) [compound 200]
23 | > 500 | > 500 | > 500 | COc1cc(-n2cnc3cc(-c4cnn(C)c4)ccc32)cc(OC)c1C(=O)N1CCC1CO (stereo not drawn) [compound 193, [2,6-dimethoxy-4-[5-(1-methylpyrazol-4-yl)benzimidazol-1-yl]phenyl]-[2-(hydroxymethyl)azetidin-1-yl]methanone]
24 | 100 to 500 | 10 to 100 | 100 to 500 | CCNC(=O)c1c(OC)cc(-n2cnc3cc(-c4cn(C)nc4C)ccc32)cc1OC [compound 8, 4-[5-(1,3-dimethylpyrazol-4-yl)benzimidazol-1-yl]-N-ethyl-2,6-dimethoxy-benzamide]
25 | > 500 | > 500 | 100 to 500 | COc1cc(-n2cnc3cc(-n4cnc(C)n4)ccc32)cc(OC)c1C(=O)NCC(F)(F)F [Cpd 166, 2,6-dimethoxy-4-[5-(3-methyl-1,2,4-triazol-1-yl)benzimidazol-1-yl]-N-(2,2,2-trifluoroethyl)benzamide]
26 | > 500 | > 500 | > 500 | COc1cc(-n2cnc3cc(-c4cnn(C)c4)ccc32)cc(OC(F)F)c1C(=O)NC(C)(C)C [compound 199, N-tert-butyl-2-(difluoromethoxy)-6-methoxy-4-[5-(1-methylpyrazol-4-yl)benzimidazol-1-yl]benzamide]
27 | > 500 | 100 to 500 | 100 to 500 | COc1cc(-n2cnc3cc(-c4cncn4C)ccc32)cc(OC)c1C(=O)NCC(F)(F)F [compound 135, 2,6-dimethoxy-4-[5-(3-methylimidazol-4-yl)benzimidazol-1-yl]-N-(2,2,2-trifluoroethyl)benzamide]
28 | 10 to 100 | 10 to 100 | 10 to 100 | COc1cc(-n2cnc3cc(-c4cnn(C)c4)ccc32)cc(OC)c1C(=O)NC1CCC[C@@H]1O (stereo in doubt) [compound 141, N-[(1R,2S)-2-hydroxycyclopentyl]-2,6-dimethoxy-4-[5-(1-methylpyrazol-4-yl)benzimidazol-1-yl]benzamide]
29 | > 500 | > 500 | > 500 | COc1cc(-n2cnc3cc(-c4cnn(C)c4)ccc32)cc(OC)c1C(=O)N1CC(N2CCOCC2)C1 [compound 188, [2,6-dimethoxy-4-[5-(1-methylpyrazol-4-yl)benzimidazol-1-yl]phenyl]-(3-morpholinoazetidin-1-yl)methanone]
30 | > 500 | > 500 | > 500 | CCNC(=O)c1c(OC)cc(-n2cnc3cc(-c4nnc(C)[nH]4)ccc32)cc1OC(F)F [compound 150, 2-(difluoromethoxy)-N-ethyl-6-methoxy-4-[5-(5-methyl-4H-1,2,4-triazol-3-yl)benzimidazol-1-yl]benzamide]
